{
  "source": "paper PMC7038240",
  "about": "(Antimicrobial Agents and Chemotherapy, 2020)",
  "type_in_all_cases": "cell-based",
  "key": {"[1]": {"system": "K. pneumoniae", "assay": "microbe, parasite or virus in culture", "settings": "Klebsiella pneumoniae, read-out: MIC"}, "[2]": {"system": "P. aeruginosa", "assay": "microbe, parasite or virus in culture", "settings": "Pseudomonas aeruginosa"}, "[3]": {"system": "S. marcescens", "assay": "microbe, parasite or virus in culture", "settings": "Serratia marcescens"}, "[4]": {"system": "S. paratyphi", "assay": "microbe, parasite or virus in culture", "settings": "Salmonella enterica, strain 527, AmpC/TEM-1"}, "[5]": {"system": "S. typhi", "assay": "microbe, parasite or virus in culture", "settings": "Salmonella enterica, strain 26A, AmpC/TEM-1"}, "[6]": {"system": "M. morgannii", "assay": "organism not typed", "settings": "strain 769909; OXA-48", "description": "The antibacterial activity of cefepime-taniborbactam was compared to that of ceftazidime-avibactam, ceftolozane-tazobactam, and cefepime-tazobactam against a diverse panel of Enterobacterales and P. aeruginosa clinical isolates with defined β-lactamase subtypes (see Table S1 in the supplemental material). IMP-producing strains were excluded, as none of the BLI-protected cephalosporins inhibited IMP sufficiently to provide a clinically relevant rescue of the partner β-lactam, a characteristic also shared by approved BLI-protected carbapenems (meropenem-vaborbactam and imipenem-relebactam). […] The antibacterial activity of the cephalosporins alone was included to ascertain the level of potentiation by the partnered BLI. BLIs were tested at a fixed concentration of 4 μg/ml in all combinations except cefepime-tazobactam, where tazobactam was fixed at a concentration of 8 μg/ml ([38]). The collection comprised 143 clinical isolates collected from 2005 and 2018.\nThe in vitro antibacterial activity of the β-lactams alone or in combination with the BLIs was determined in cation-adjusted Mueller-Hinton broth (CAMHB) microdilution assays according to CLSI recommendations ([51]). […]. The inocula for the broth microdilution assays were prepared by the broth culture method ([51]). […]"}},
  "note": "Like-named read-outs stand apart in the source and are kept apart here.",
  "data": [
    {"smiles": "CO/N=C(\\C(=O)N[C@@H]1C(=O)N2C(C(=O)[O-])=C(C[N+]3(C)CCCC3)CS[C@H]12)c1csc(N)n1", "note": "[FEP]", "values": [
      {"measurement": "MIC", "setting": "[1]; strain 1280442, SHV-OSBL(b)/VIM-1", "result": 16, "unit": "µg/mL"},
      {"measurement": "MIC", "setting": "[1]; strain CDC-0003, KPC", "result": 32, "unit": "µg/mL"},
      {"measurement": "MIC", "setting": "[1]; strain CDC-0049, NDM", "result": "≥ 256", "unit": "µg/mL"},
      {"measurement": "MIC", "setting": "[1]; strain CDC-0117, KPC-3", "result": 64, "unit": "µg/mL"},
      {"measurement": "MIC", "setting": "[1]; strain CDC-0125, KPC-3", "result": 64, "unit": "µg/mL"},
      {"measurement": "MIC", "setting": "[1]; strain CDC-0139, NDM-1", "result": "≥ 256", "unit": "µg/mL"},
      {"measurement": "MIC", "setting": "[1]; strain CDC-0145, NDM", "result": "≥ 256", "unit": "µg/mL"},
      {"measurement": "MIC", "setting": "[1]; strain CDC-0148, NDM", "result": 128, "unit": "µg/mL"},
      {"measurement": "MIC", "setting": "[1]; strain CDC-0152, NDM", "result": "≥ 256", "unit": "µg/mL"},
      {"measurement": "MIC", "setting": "[1]; strain DOV, OXA-48", "result": 32, "unit": "µg/mL"},
      {"measurement": "MIC", "setting": "[1]; strain ESBL8 #1, TEM-1/SHV-12", "result": 4, "unit": "µg/mL"},
      {"measurement": "MIC", "setting": "[1]; strain ESBL 10, SHV-12/TEM-1", "result": 8, "unit": "µg/mL"},
      {"measurement": "MIC", "setting": "[1]; strain KIRK, OXA-162", "result": 16, "unit": "µg/mL"},
      {"measurement": "MIC", "setting": "[1]; strain KP 3, SHV-1/TEM-1", "result": 16, "unit": "µg/mL"},
      {"measurement": "MIC", "setting": "[1]; strain KPN 508, SHV-7/TEM-1", "result": 8, "unit": "µg/mL"},
      {"measurement": "MIC", "setting": "[1]; strain SI-C05, OXA-48", "result": 16, "unit": "µg/mL"},
      {"measurement": "MIC", "setting": "[1]; strain SI-F100, SHV-5/TEM-1/CMY-2", "result": 1, "unit": "µg/mL"},
      {"measurement": "MIC", "setting": "[1]; strain SI-KP NO30, TEM-26b/SHV-60/SHV-26", "result": 16, "unit": "µg/mL"},
      {"measurement": "MIC", "setting": "[2]", "result": 16, "unit": "µg/mL"},
      {"measurement": "MIC", "setting": "[2]; ATCC27853, P. aeruginosa ATCC 27853, PDC-5, read-out: MIC", "result": 1, "unit": "µg/mL"},
      {"measurement": "MIC", "setting": "[2]; ATCC27853, strain ATCC 27853, W.T., read-out: MIC", "result": 1, "unit": "µg/mL"},
      {"measurement": "MIC", "setting": "[2]; P. aeruginosa CDC-0457, VIM, read-out: MIC", "result": 16, "unit": "µg/mL"},
      {"measurement": "MIC", "setting": "[2]; P. aeruginosa PS-12 (ST-235, VIM-2), BLI fixed at 4 μg/ml, read-out: MIC", "result": 32, "unit": "µg/mL"},
      {"measurement": "MIC", "setting": "[2]; strain 10.257, PDC-50, read-out: MIC", "result": 32, "unit": "µg/mL"},
      {"measurement": "MIC", "setting": "[2]; strain 11.516, PDC-79, read-out: MIC", "result": 16, "unit": "µg/mL"},
      {"measurement": "MIC", "setting": "[2]; strain 11.698, PDC-87, read-out: MIC", "result": 128, "unit": "µg/mL"},
      {"measurement": "MIC", "setting": "[2]; strain 11.813, PDC-91, read-out: MIC", "result": "≥ 256", "unit": "µg/mL"},
      {"measurement": "MIC", "setting": "[2]; strain 13.1716, PDC-74, read-out: MIC", "result": 128, "unit": "µg/mL"},
      {"measurement": "MIC", "setting": "[2]; strain 13.1717, PDC-74, read-out: MIC", "result": 64, "unit": "µg/mL"},
      {"measurement": "MIC", "setting": "[2]; strain 13.1737, PDC-80, read-out: MIC", "result": 16, "unit": "µg/mL"},
      {"measurement": "MIC", "setting": "[2]; strain 13.1755, PDC-86, read-out: MIC", "result": 16, "unit": "µg/mL"},
      {"measurement": "MIC", "setting": "[2]; strain 13.1760, PDC-77, read-out: MIC", "result": 16, "unit": "µg/mL"},
      {"measurement": "MIC", "setting": "[2]; strain 13.1775, PDC-87, read-out: MIC", "result": 64, "unit": "µg/mL"},
      {"measurement": "MIC", "setting": "[2]; strain 247.3D, VIM-2, read-out: MIC", "result": 32, "unit": "µg/mL"},
      {"measurement": "MIC", "setting": "[2]; strain 1129, PDC, read-out: MIC", "result": 4, "unit": "µg/mL"},
      {"measurement": "MIC", "setting": "[2]; strain 3615, PDC/TEM-1, read-out: MIC", "result": 16, "unit": "µg/mL"},
      {"measurement": "MIC", "setting": "[2]; strain 5671, VIM-1, read-out: MIC", "result": 16, "unit": "µg/mL"},
      {"measurement": "MIC", "setting": "[2]; strain 8273, PDC/TEM-1, read-out: MIC", "result": 8, "unit": "µg/mL"},
      {"measurement": "MIC", "setting": "[2]; strain 164951, W.T., read-out: MIC", "result": 1, "unit": "µg/mL"},
      {"measurement": "MIC", "setting": "[2]; strain 377860, W.T., read-out: MIC", "result": 4, "unit": "µg/mL"},
      {"measurement": "MIC", "setting": "[2]; strain 384743, PDC/TEM-1, read-out: MIC", "result": 4, "unit": "µg/mL"},
      {"measurement": "MIC", "setting": "[2]; strain 1013996, KPC-2, read-out: MIC", "result": "≥ 256", "unit": "µg/mL"},
      {"measurement": "MIC", "setting": "[2]; strain 1071703, GES-6, read-out: MIC", "result": 16, "unit": "µg/mL"},
      {"measurement": "MIC", "setting": "[2]; strain 1113755, GES-5, read-out: MIC", "result": 32, "unit": "µg/mL"},
      {"measurement": "MIC", "setting": "[2]; strain 1138223, GES-19, read-out: MIC", "result": "≥ 256", "unit": "µg/mL"},
      {"measurement": "MIC", "setting": "[2]; strain 1138337, GES-19, read-out: MIC", "result": "≥ 256", "unit": "µg/mL"},
      {"measurement": "MIC", "setting": "[2]; strain 1258509, GES-6, read-out: MIC", "result": 32, "unit": "µg/mL"},
      {"measurement": "MIC", "setting": "[2]; strain 1275655, GES-20, read-out: MIC", "result": "≥ 256", "unit": "µg/mL"},
      {"measurement": "MIC", "setting": "[2]; strain 1300089, GES-19, read-out: MIC", "result": "≥ 256", "unit": "µg/mL"},
      {"measurement": "MIC", "setting": "[2]; strain 1313666, KPC-2, read-out: MIC", "result": "≥ 256", "unit": "µg/mL"},
      {"measurement": "MIC", "setting": "[2]; strain CDC-0090, KPC, read-out: MIC", "result": 128, "unit": "µg/mL"},
      {"measurement": "MIC", "setting": "[2]; strain PA2, W.T., read-out: MIC", "result": 8, "unit": "µg/mL"},
      {"measurement": "MIC", "setting": "[2]; strain PAA1-9G1, GES-5, read-out: MIC", "result": "≥ 256", "unit": "µg/mL"},
      {"measurement": "MIC", "setting": "[2]; strain PAA1-9G2, GES-5, read-out: MIC", "result": "≥ 256", "unit": "µg/mL"},
      {"measurement": "MIC", "setting": "[2]; strain PS-12, VIM-2, read-out: MIC", "result": 32, "unit": "µg/mL"},
      {"measurement": "MIC", "setting": "[2]; strain PS-32, VIM-2, read-out: MIC", "result": 8, "unit": "µg/mL"},
      {"measurement": "MIC", "setting": "[2]; strain Paeβ-04, 100-fold ↑ PDC-2/30% OprD/5.6x ↑ABM, read-out: MIC", "result": 16, "unit": "µg/mL"},
      {"measurement": "MIC", "setting": "[2]; strain Paeβ-10, 67-fold ↑ PDC-2/0.1% OprD/5.7x↑ABM, read-out: MIC", "result": 16, "unit": "µg/mL"},
      {"measurement": "MIC", "setting": "[2]; strain Paeβ-15, 310-fold ↑ PDC-2/10% OprD/4.4x↑XYM, read-out: MIC", "result": 128, "unit": "µg/mL"},
      {"measurement": "MIC", "setting": "[2]; strain Paeβ-18, 600-fold ↑ PDC-3/<0.01% OprD/3.9x and 5.6x ↑ABM and XYM, read-out: MIC", "result": 64, "unit": "µg/mL"},
      {"measurement": "MIC", "setting": "[2]; strain Paeβ-21, 200-fold ↑ PDC-4/10% OprD/13.5x ↑XYM, read-out: MIC", "result": 16, "unit": "µg/mL"},
      {"measurement": "MIC", "setting": "[2]; strain Ps296, VIM-2, read-out: MIC", "result": 4, "unit": "µg/mL"},
      {"measurement": "MIC", "setting": "[3]; strain 134434, AmpC/SHV-12/TEM-1", "result": 4, "unit": "µg/mL"},
      {"measurement": "MIC", "setting": "[3]; strain 192476, AmpC/TEM-1/SHV-5", "result": 4, "unit": "µg/mL"},
      {"measurement": "MIC", "setting": "[3]; strain 192478, AmpC/SHV-12/TEM-1", "result": 4, "unit": "µg/mL"},
      {"measurement": "MIC", "setting": "[3]; strain 218073, AmpC/SHV-7/TEM-1", "result": 2, "unit": "µg/mL"},
      {"measurement": "MIC", "setting": "[4]", "result": 64, "unit": "µg/mL"},
      {"measurement": "MIC", "setting": "[5]", "result": 4, "unit": "µg/mL"},
      {"measurement": "MIC", "setting": "[6]", "result": 0.06, "unit": "µg/mL"}
    ]}
  ]
}
